System: IL-6 mRNA
Test: Real-time quantitative RT-PCR, IL-6 mRNA after CCI injury
Format: in vivo, rat
Conditions: single-dose 30 mg kg^-1 i.p.; ipsilateral cortex, 6 h after injury; P<0.05
Experimental: A previously described CCI injury procedure was utilized (Chen et al., 2003). Male Sprague-Dawley rats, which have body weight of 250-300 g, were anaesthetized with sodium pentobarbital (i.p.; 50 mgkg^−1; Rhone Merieux, Harlow, UK) and placed in a stereotaxic frame. A 5-mm craniotomy was performed over the left parietal cortex, centered on the coronal suture and 3 mm lateral to the sagittal suture. Considerable care was taken to avoid injury to the underlying dura. Injury was made using a pneumatic piston with a rounded metal tip (2.5 mm diameter) that was angled 22.5° C. to the vertical so that the tip was perpendicular with the brain surface at the centre of the craniotomy. A velocity of 4 ms^−1 and a deformation depth 2 mm below the dura were used. […] Body temperature was monitored throughout the surgery by a rectal probe; temperature was maintained at 37.0±0.5° C. using a heated pad. […] Testing after injury was as follows: (1) real-time quantitative RT-PCR analysis for TNF-α, IL-1β and IL-6 mRNA expression at 6 h post-injury (n=7 for each group); (2) FluoroJade B (FJB) staining, TNF-α, IL-1β and IL-6 immunohistochemistry, as well as ELISA at 24 h post-injury to assess degenerative neurons and to determine cytokine expression (n=7 for each group). […] Approximately 50 mg tissue was collected from the ipsilateral (injured) hemisphere and processed for real-time quantitative RT-PCR. […]

O=c1cc(-c2ccccc2)oc2cc(O)c(O)c(O)c12 [baicalein]
IL-6 mRNA level, % of level in vehicle-treated injured rats: 43.6%

From US20100222421A1, “Usage of Baicalein in the Preparation of a Pharmaceutical Composition for the Treatment of Traumatic Brain Injury” (National Defense Medical Center, priority 2009, published 2010)
